From publication PMC7663979, “Design of Novel 4-Aminobenzofuroxans and Evaluation of Their Antimicrobial and Anticancer Activity” (International Journal of Molecular Sciences, 2020)
Values joined by “and” are separate entries in the source; they are usually repeats but may differ in a detail not shown here. Identical values can stand only once.

Experiments:
Chang Liver = test: Cytotoxicity assay (Cytell Cell Viability BioApp), normal Chang liver cells; format: cell-based; conditions: Homo sapiens, mean ± SD, three experiments, read-out: IC50 Chang Liver (normal cell line)
T98G = test: cells; format: cell-based, human; conditions: for IC50: Homo sapiens, T98G, read-out: IC50 T98G; for SI T98G: selectivity index = IC50 normal cells (Chang liver) / IC50 cancer cells, n.s. = no selectivity
M-HeLa = test: Cytotoxicity assay (Cytell Cell Viability BioApp), M-HeLa; format: cell-based, human; conditions: for IC50: Homo sapiens, M-HeLa, mean ± SD, three experiments; for SI M-HeLa: selectivity index = IC50 normal cells (Chang liver) / IC50 cancer cells, n.s. = no selectivity
MCF7 = test: Cytotoxicity assay (Cytell Cell Viability BioApp), MCF7; format: cell-based, human; conditions: for IC50: Homo sapiens, MCF7, mean ± SD, three experiments; for SI MCF7: selectivity index = IC50 normal cells (Chang liver) / IC50 cancer cells, n.s. = no selectivity
PANC-1 = test: Cytotoxicity assay (Cytell Cell Viability BioApp), PANC-1; format: cell-based, human; conditions: for IC50: Homo sapiens, PANC-1, mean ± SD, three experiments; for SI PANC-1: selectivity index = IC50 normal cells (Chang liver) / IC50 cancer cells, n.s. = no selectivity
[1] = system: Microdochium nivale isolate 1; test: Fungistatic activity, agar growth medium poison technique, isolate 1; format: cell-based; conditions: 1 mM in PSA; for inhibition at 1000 µM: Microdochium nivale; for inhibition at 1000 µM / growth inhibition: 20 °C
Description: (§1) Fungistatic activity of the tested compounds was assessed in vitro using agar growth medium poison technique. The target compounds as well as widely used fungicides benzimidazole and carbendazim were dissolved to 10 mM concentration in 20% Tween 20. The obtained solutions were added 1:9 v/v (giving 1 mM-concentrations of the target compounds) to potato-sucrose agar (PSA) at 60 °C, mixed thoroughly and transferred to Petri dishes. For the control variants, PSA was supplemented with 20% Tween 20 (9:1). Fungistatic effect was tested against two isolates of Microdochium nivale causing snow mold disease of winter cereals (rye) from the culture collection of FRC Kazan Scientific Center of RAS. […] The center of each solidified medium was inoculated upside-down with 5-mm diameter mycelial plug cut from the periphery of 10-day-old cultures. The tested dishes were incubated at 20 °C. The percentage growth inhibition was calculated using Abbott’s formula (1):%Inhibition = [(A − B) ÷ A] × 100(1) where ‘A’ is mycelia growth in the control conditions and ‘B’ is mycelia growth in the treatment conditions. The assay was performed at least in triplicate. Linear growth of each colony was determined during 6 days.

[2] = system: Microdochium nivale isolate 21; test: Fungistatic activity, agar growth medium poison technique, isolate 21; format: cell-based; conditions: 1 mM in PSA; for inhibition at 1000 µM: Microdochium nivale
Description: as §1

M-HeLa cells [3] = test: Cell cycle analysis, propidium iodide, flow cytometry; format: cell-based, human; conditions: 24 h, control cells 34.28%
Description: (§2) Cell Culture. M-HeLa cells at 10^6 cells/ well in a final volume of 2 mL were seeded into 6-well plates. After 24 h of incubation, various concentrations of compounds 3c and 3f were added to wells.
The DNA content and cell-cycle distribution after […] were estimated by flow cytometry. Cell seeding, drug treatment and ethanol fixation were similar to cell proliferation assay. After washing with PBS, […] were suspended in 150 μL of PBS, then 0.5 mL phosphate-citrate buffer (0.05 M, pH = 4.0) was added and the suspension was incubated at room temperature for 5 min to facilitate the extraction of low molecular weight DNA. Following centrifugation the cells were resuspended in 150 μL DNA staining solution (20 μg/mL propidium iodide, 200 μg/mL […], and 0.1% Triton X-100) and incubated in the CO2 incubator (37 °C for 30 min). Cell cycle distribution was determined by fluorescence-activated cell sorting analysis of propidium iodide-stained ethanol-fixed cells using a Guava EasyCyte (Guava easyCyte, MERCK, Kenilworth, NJ, USA).

M-HeLa cells [4] = test: Cell apoptosis analysis by flow cytometry (annexin V-Alexa Fluor 647 / propidium iodide); format: cell-based, human; conditions: 24 h
Description: as §2
Cell Apoptosis Analysis. The cells were harvested at 2000 rpm for 5 min and, then, washed twice with ice-cold PBS, followed by resuspension in binding buffer 100 μL. Next, the samples were incubated with 0.35 μL of annexin V-Alexa Fluor 647 and 0.1 μL of propidium iodide for 40 min at room temperature in the dark. Finally, the cells were analyzed by flow cytometry (Guava easyCyte, MERCK, Kenilworth, NJ, USA). The experiments were repeated three times.

Row | SMILES | IC50 (Chang Liver) [µM] | IC50 (T98G) [µM] | SI T98G (T98G) | IC50 (M-HeLa) [µM] | SI M-HeLa (M-HeLa) | IC50 (MCF7) [µM] | SI MCF7 (MCF7) | IC50 (PANC-1) [µM] | SI PANC-1 (PANC-1) | also measured
1 | O=[N+]([O-])c1c(Cl)cc2c(no[n+]2[O-])c1NC1CCCCC1 [Compound 5d, 6-chloro-4-(cyclohexylamino)-5-nitrobenzofuroxan] | 67.1 ± 5.7 | 31.6 ± 2.5 | 2.1 | 61 ± 5.2 | 1.1 | 79.1 ± 6.2 | n.s. | > 100 | n.s. | 
2 | O=[N+]([O-])c1c(Cl)cc2c(no[n+]2[O-])c1NN1CCOCC1 [Compound 5e, 6-chloro-4-(morpholinoamino)-5-nitrobenzofuroxan] | 65.2 ± 5.8 | 57.1 ± 4.3 | 1.1 | 61.6 ± 5.2 | 1.1 | > 100 | n.s. | > 100 | n.s. | 
3 | O=[N+]([O-])c1c(Cl)cc2c(no[n+]2[O-])c1Cl [4,6-dichloro-5-nitrobenzofuroxan, reference compound] |  |  |  |  |  |  |  |  |  | fungistatic activity (result in words) [1]: not effective; fungistatic activity (result in words) [2]: not effective
4 | O=[N+]([O-])c1c(Cl)cc2c(no[n+]2[O-])c1Nc1ccc(F)cc1 [Compound 3a, 6-chloro-4-((4-fluorophenyl)amino)-5-nitrobenzofuroxan] | 93.8 ± 8.3 | 28.3 ± 2.3 | 3.3 | 45.9 ± 3.7 | 2.0 | > 100 | n.s. | > 100 | n.s | 
5 | CCCCCCNc1c([N+](=O)[O-])c(Cl)cc2c1no[n+]2[O-] [Compound 5b, 6-chloro-4-(hexylamino)-5-nitrobenzofuroxan] | > 100 | 65 ± 5.8 | >1.5 | 60.8 ± 4.8 | >1.6 | > 100 | n.s. | 50 ± 3.9 | >2 | 
6 | O=[N+]([O-])c1c(Cl)cc2c(no[n+]2[O-])c1Nc1ccc(Cl)cc1 [Compound 3b, 6-chloro-4-((4-chlorophenyl)amino)-5-nitrobenzofuroxan] | 62.7 ± 5.5 | 12.7 ± 1.1 | 5.0 | 60.6 ± 4.7 | 1.0 | 69.2 ± 5.7 | n.s. | 82.7 ± 7.3 | n.s | inhibition at 1000 µM ([1]; fifth day of incubation): > 40%; inhibition at 1000 µM ([1]; sixth day of incubation): > 25%; inhibition at 1000 µM ([2]; fifth day of incubation, 20 °C): > 40%; inhibition at 1000 µM ([2]; sixth day of incubation, 20 °C): > 25%
7 | N#Cc1ccc(Nc2c([N+](=O)[O-])c(Cl)cc3c2no[n+]3[O-])cc1 [Compound 3d, 6-chloro-4-((4-cyanophenyl)amino)-5-nitrobenzofuroxan] | > 100 | 14.7 ± 1.2 | >6.8 | 16.6 ± 1.4 | >6 | 67.9 ± 5.7 | >1.5 | 61.3 ± 5.1 | >1.6 | 
8 | O=[N+]([O-])c1c(Cl)cc2c(no[n+]2[O-])c1Nc1ccc(Br)cc1 [Compound 3c, 4-((4-bromophenyl)amino)-6-chloro-5-nitrobenzofuroxan] | 61.3 ± 5.1 | 20.4 ± 1.7 | 3 | 4.8 ± 0.4 | 12.8 | 3.7 ± 0.2 | 16.6 | 59.2 ± 4.6 | 1.0 | inhibition at 1000 µM ([1]; fifth day of incubation): > 40%; inhibition at 1000 µM ([1]; sixth day of incubation): > 25%; cells in G0/G1 phase (G1) (M-HeLa cells [3]; 5 μM): 62.9% and 62.91%; cells in G0/G1 phase (G1) (M-HeLa cells [3]; 10 μM): 70.1% and 70.06%; D—dead cells (M-HeLa cells [4]; 5 μM): 3.92%; Ea—early apoptotic cells (M-HeLa cells [4]; 5 μM): 6.67%; La—late apoptotic cells (M-HeLa cells [4]; 5 μM): 8.63%; L—living cells (M-HeLa cells [4]; 5 μM): 80.78%; D—dead cells (M-HeLa cells [4]; 10 μM): 6.16%; Ea—early apoptotic cells (M-HeLa cells [4]; 10 μM): 17.33%; La—late apoptotic cells (M-HeLa cells [4]; 10 μM): 15.69%; L—living cells (M-HeLa cells [4]; 10 μM): 60.82%; inhibition at 1000 µM ([2]; fifth day of incubation, 20 °C): > 40%; inhibition at 1000 µM ([2]; sixth day of incubation, 20 °C): > 25%
9 | COc1ccccc1Nc1c([N+](=O)[O-])c(Cl)cc2c1no[n+]2[O-] [Compound 3e, 6-chloro-4-((2-methoxyphenyl)amino)-5-nitrobenzofuroxan] | 62.7 ± 5.6 | 21.5 ± 1.8 | 3.0 | 62.7 ± 5.4 | 1.0 | 79.5 ± 6.4 | n.s. | 50 ± 4.1 | 1.3 | fungistatic activity (result in words) [1]: inefficient; fungistatic activity (result in words) [2]: one of the most pronounced inhibitory effects
10 | c1ccc2[nH]cnc2c1 [benzimidazole, reference compound] |  |  |  |  |  |  |  |  |  | growth inhibition ([1]; fifth day of incubation): null inhibitory effect
11 | COc1cccc2c1C(=O)c1c(O)c3c(c(O)c1C2=O)C[C@@](O)(C(=O)CO)C[C@@H]3O[C@H]1C[C@H](N)[C@H](O)[C@H](C)O1 [Doxorubicin, reference compound] | 3 ± 0.2 | 6.8 ± 0.5 | n.s. | 3 ± 0.1 | 1.0 | 3 ± 0.2 | 1.0 | 3.3 ± 0.1 | 1.0 | 
12 | CCCCNc1c([N+](=O)[O-])c(Cl)cc2c1no[n+]2[O-] [Compound 5a, 4-(butylamino)-6-chloro-5-nitrobenzofuroxan] | 100 | 22.7 ± 1.9 | 4.4 | 56.5 ± 4.5 | 1.8 | > 100 | n.s. | > 100 | n.s. | fungistatic activity (result in words) [1]: one of the most effective; growth inhibition ([2]; sixth day of incubation, 20 °C): did not cause any inhibition; inhibition at 1000 µM ([2]; fifth day of incubation, 20 °C): 10%
13 | COC(=O)Nc1nc2ccccc2[nH]1 [carbendazim, methyl-2-benzimidazole carbamate, reference compound] |  |  |  |  |  |  |  |  |  | growth inhibition ([1]; fifth day of incubation): null inhibitory effect; inhibition at 1000 µM ([2]; sixth day of incubation, 20 °C): 100%
14 | CN(Cc1ccccc1)c1c([N+](=O)[O-])c(Cl)cc2c1no[n+]2[O-] [Compound 5f, 4-(benzyl(methyl)amino)-6-chloro-5-nitrobenzofuroxan] | > 100 | > 100 | n.s. | 62.2 ± 5.6 | >1.6 | > 100 | n.s. | > 100 | n.s. | inhibition at 1000 µM ([1]; fifth day of incubation): < 20%; inhibition at 1000 µM ([1]; sixth day of incubation): < 10%; inhibition at 1000 µM ([2]; fifth day of incubation, 20 °C): < 20%; inhibition at 1000 µM ([2]; sixth day of incubation, 20 °C): < 10%
